{
  "source": "patent US12116364B2",
  "about": "“Heteroaryl compounds and uses thereof” (APRINOIA THERAPEUTICS INC., priority 2018, dated 2024)",
  "key": {"[1]": {"molecular_target": "[11C]PBB3 binding sites (tau aggregates) in temporal cortex homogenates of an Alzheimer's disease patient (Homo sapiens, UniProt P10636)", "sequence (P10636 623-695 limits assumed)": "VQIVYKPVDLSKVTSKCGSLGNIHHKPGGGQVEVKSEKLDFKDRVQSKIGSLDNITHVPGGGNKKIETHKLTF", "test": "Fluorescence competitive binding assay in vitro ([11C]PBB3 displacement in Alzheimer's disease temporal cortex homogenates)", "settings": "5 nM [11C]PBB3, AD temporal cortex homogenate (100 μg tissue), 30 min, room temperature", "method": "Fluorescence competitive binding assay in vitro was performed as reported previously1. Frozen tissues derived from the temporal cortex of an Alzheimer's disease patient was homogenized in 50 mM Tris-HCl buffer, pH 7.4, containing protease inhibitor cocktail (cOmplete™, EDTA-free; Roche), and stored at −80° C. pending analyses. To assay radioligand binding with homologous or heterologous blockade, these homogenates (100 μg tissue) were incubated with 5 nM [11C]PBB3 (molar radioactivity: 100-150 GBq/μmol) in the absence or presence of unlabeled PBB3 at varying concentrations ranging from 10-11-106 M in Tris-HCl buffer containing 10% ethanol, pH 7.4, for 30 min at room temperature. Non-specific binding of [11C]PBB3 was determined in the presence of 5×10^−7 M PBB3. Samples were run once only and specific radioligand binding was determined as pmol/g tissue. Inhibition constant (Ki) and percentage of displacement were determined by using non-linear regression to fit a concentration-binding plot to one-site and two-site binding models derived from the Cheng-Prusoff equation with GraphPad Prism version 6.0 (GraphPad Software), followed by F-test for model selection. In a one-site homologous blockade model, dissociation constant (Kd) was calculated from homologous competitive binding using this function: Kd=Ki=IC50−Radioligand\nwhere IC50 and [Radioligand] stand for the concentration of the competitor inducing 50% inhibition and radioligand concentration, respectively. Experiments with [^11C]PBB3 and unlabeled PBB3 were performed in a dimly lit condition to avoid photoconversion of the compounds. Table B lists Ki values of exemplary test compounds."}, "[2]": {"molecular_target": "recombinant tau proteins (human Tau, heparin-fiberized) (Homo sapiens, UniProt P10636)", "sequence (P10636 whole entry)": "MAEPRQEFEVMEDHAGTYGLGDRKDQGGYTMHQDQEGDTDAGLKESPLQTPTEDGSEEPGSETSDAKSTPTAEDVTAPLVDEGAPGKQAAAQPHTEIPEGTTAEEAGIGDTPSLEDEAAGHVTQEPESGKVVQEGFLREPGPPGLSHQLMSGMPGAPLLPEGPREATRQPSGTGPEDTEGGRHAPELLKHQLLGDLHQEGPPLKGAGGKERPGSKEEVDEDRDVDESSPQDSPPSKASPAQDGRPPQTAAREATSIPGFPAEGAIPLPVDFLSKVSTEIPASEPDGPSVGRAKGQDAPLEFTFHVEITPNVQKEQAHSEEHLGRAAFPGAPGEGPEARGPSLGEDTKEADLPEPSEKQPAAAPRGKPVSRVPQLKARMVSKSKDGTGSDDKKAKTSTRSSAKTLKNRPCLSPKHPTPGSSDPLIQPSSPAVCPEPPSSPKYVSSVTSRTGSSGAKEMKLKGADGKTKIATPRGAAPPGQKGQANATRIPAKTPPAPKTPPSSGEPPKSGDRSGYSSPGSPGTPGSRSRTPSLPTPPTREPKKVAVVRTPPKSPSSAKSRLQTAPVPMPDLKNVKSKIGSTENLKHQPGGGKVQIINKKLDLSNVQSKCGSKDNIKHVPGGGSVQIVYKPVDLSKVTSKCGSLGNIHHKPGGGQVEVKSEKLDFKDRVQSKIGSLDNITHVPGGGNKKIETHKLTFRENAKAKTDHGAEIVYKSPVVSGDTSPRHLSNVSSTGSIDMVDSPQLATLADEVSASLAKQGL", "test": "Fluorescence quantitative Tau binding assay in vitro", "settings": "0.04 uM fiberized recombinant tau, 30 mM Tris pH 7.5, 1 h, fluorometric saturation curve", "method": "Expression and Purification of Human Tau Protein\n• pET41a-Tau wild type • One Shot® BL21(DE3) Chemically Competent E. coli (Invitrogen, C600003) • Kanamycin sulfate (Sangon Biotech, A506636) • IPTG (Sangon Biotech, A100487) • Pipes buffer (100 mM Pipes, pH6.8, 1 mM EGTA, 1 mM MgSO4) • Hepes buffer (25 mM Hepes, pH7.2, 0.1 mM EDTA, 0.5 mM DTT, 100 mM NaCl) • Q-Sepharose Fast Flow column (GE Healthcare, 17-0510-01) • SP-Sepharose Fast Flow column (GE Healthcare, 17-0729-01) Procedures: Protein Expression: • Step 1: Transform 1 uL expression plasmid pET41a-tau wt into one One Shot® BL21(DE3) Chemically Competent E. coli, on ice 30 min. • Step 2: 42° C. heat shock 90 second and on ice 2 min, 37° C. recovery for 30 min, Plate small amount on LB(Kan+) agar plate incubate overnight at 37° C. • Step 3: Pick and resuspend a single colony in 200 mL liquid culture with 50 ug/mL Kanamycin to produce a starter culture. Inoculate starter culture and shake 200 rpm overnight at 37° C. • Step 4: Add 100× dilution Starter into fresh culture medium (Kan+) shake 200 rpm at 37° C. until OD600=0.8. • Step 5: Add IPTG (final conc. 1 mM) and express protein for 3 hr. • Step 6: Collect cell pellet and store at −80° C. for purification. Protein Purification: • Step 1: Cell pellet was resuspended in Pipes buffer. • Step 2: Sonication and centrifugation (15,000 rpm, 15 min at 4° C. • Step 3: The supernatant was placed in a boiling water bath for 20 min and subsequently centrifuged. The heat-stable proteins in the supernatant were loaded onto a Q-Sepharose Fast Flow column (20 mL) • Step 4: The flow through containing tau was loaded onto SP-Sepharose Fast Flow column (10 mL), eluted with Pipes buffer containing 0.2M NaCl. • Step 6: Fractions containing tau were pooled, concentrated and dialyzed against Hepes buffer, stored at −80° C. • Step 7: Reload SP-Flow through into Q-Sepharose Fast Flow column (20 mL) and SP-Sepharose Fast Flow column (10 mL) again, eluted with Pipes buffer containing 0.2M NaCl. • Step 8: Fractions containing tau were pooled, concentrated and dialyzed against Hepes buffer, stored at −80° C. Repeat step 6-7 twice, Collect all above all elution product and concentrated. Biological Assays Fluorescence Quantitative Tau Binding Assay In Vitro\n2 uM of recombinant tau proteins and 15 uM of heparin were fiberized in 30 mM Tris (pH 7.5) buffer by overnight incubation at 37° C. 0.04 uM of recombinant tau proteins which was diluted in 30 mM Tris buffer (pH 7.5) was then reacted with test compounds (containing 1% DMSO) for 1 h. Regarding the fluorometric data, the binding saturation curve was created and the parameter estimation method was conducted using Prism software (GraphPad). Kd values were determined for each of test compounds. Table A lists Kd values of exemplary test compounds."}, "[3]": {"tested_on": "tau aggregates (tangles/threads) in temporal cortex sections of an AD brain", "test": "Histological examination by fluorescence staining of AD brain sections", "type": "binding, human", "settings": "0.001% (W/V) compound in 50% ethanol, 30 min, relative to PBB3; for Fluorescent binding Tangle: score for tangles; for Fluorescent binding Thread: score for threads", "method": "The fluorescence binding assessment was performed as reported previously^1. For fluorescence labeling with PBB3 and test compounds, deparaffinized temporal cortex sections of an AD brain were incubated in 50% ethanol containing 0.001% (W/V) of PBB3 or test compound at room temperature for 30 min. The samples were rinsed with 50% ethanol for 5 min, dipped into distilled water twice for 3 min, and mounted in non-fluorescent mounting media ([…]; Vector Laboratories). Fluorescence images were captured using a DM4000 microscope (Leica) equipped with a custom filter cube for PBB3 (excitation band-pass at 391-437 nm and suppression low-pass with 458 nm cutoff)."}},
  "data": [
    {"smiles": "CNc1ccc(-c2ccc(-c3nc4ccc(NCC(O)CF)cc4s3)cc2)cn1", "note": "(centres unmarked) [Compound J, 1-Fluoranyl-3-[[2-[4-[6-(methylamino)pyridin-3-yl]phenyl]-1,3-benzothiazol-6-yl]amino]propan-2-ol]", "values": [
      {"measurement": "Ki", "setting": "[1]", "value": 5, "unit": "nM"},
      {"measurement": "Kd", "setting": "[2]", "value": 890, "unit": "nM"},
      {"measurement": "Fluorescent binding Tangle", "setting": "[3]", "value": "3/3"},
      {"measurement": "Fluorescent binding Thread", "setting": "[3]", "value": "3/3"}
    ]},
    {"smiles": "CNc1ccc(-c2ccc(-c3cc4ccncc4[nH]3)cc2)c(F)n1", "note": "[Compound D, 5-(4-(1H-Pyrrolo[2,3-c]pyridin-2-yl)phenyl)-6-fluoro-N-methylpyridin-2-amine]", "values": [
      {"measurement": "Ki", "setting": "[1]", "value": 1, "unit": "nM"},
      {"measurement": "Kd", "setting": "[2]", "value": 690, "unit": "nM"},
      {"measurement": "Fluorescent binding Tangle", "setting": "[3]", "value": "3/3"},
      {"measurement": "Fluorescent binding Thread", "setting": "[3]", "value": "3/3"}
    ]},
    {"smiles": "CNc1ccc(-c2ccc(-c3cn4cc(NCC(O)CF)ccc4n3)cc2)cn1", "note": "(centres unmarked) [Compound P, 1-Fluoro-3-(2-(4-(6-(methylamino)pyridin-3-yl)phenyl)imidazo[1,2-a]pyridin-6-ylamino)propan-2-ol]", "values": [
      {"measurement": "Ki", "setting": "[1]", "value": 45, "unit": "nM"},
      {"measurement": "Kd", "setting": "[2]", "value": 370, "unit": "nM"},
      {"measurement": "Fluorescent binding Tangle", "setting": "[3]", "value": 1},
      {"measurement": "Fluorescent binding Thread", "setting": "[3]", "value": 0}
    ]},
    {"smiles": "CNc1ccc(-c2ccc(-c3cc4cc(F)ncc4[nH]3)cc2)cn1", "note": "[Compound B, 5-(4-(5-Fluoro-1H-pyrrolo[2,3-c]pyridin-2-yl)phenyl)-N-methylpyridin-2-amine]", "values": [
      {"measurement": "Ki", "setting": "[1]", "value": 2, "unit": "nM"},
      {"measurement": "Kd", "setting": "[2]", "value": 990, "unit": "nM"},
      {"measurement": "Fluorescent binding Tangle", "setting": "[3]", "value": "3/3"},
      {"measurement": "Fluorescent binding Thread", "setting": "[3]", "value": "3/3"}
    ]},
    {"smiles": "COc1ccc2nc(-c3ccc(-c4ccc(N(C)C)nc4F)cc3)cn2c1", "note": "[Compound Q, 6-Fluoranyl-5-[4-(6-methoxyimidazo[1,2-a]pyridin-2-yl)phenyl]-N,N-dimethyl-pyridin-2-amine]", "values": [
      {"measurement": "Ki", "setting": "[1]", "value": 5, "unit": "nM"},
      {"measurement": "Kd", "setting": "[2]", "value": 520, "unit": "nM"},
      {"measurement": "Fluorescent binding Tangle", "setting": "[3]", "value": 1},
      {"measurement": "Fluorescent binding Thread", "setting": "[3]", "value": 0.5}
    ]}
  ]
}
